Measured values from ChEMBL document CHEMBL1142146, “Quinupristin-dalfopristin nonsusceptibility in pneumococci from sickle cell disease patients” (2007).
Values after ≈ are worked out from the molar mass of the structure shown.

Legend:
Assay type in all cases: functional
Streptococcus pneumoniae [1] = experiment: Antibacterial activity against Pneumococcus DAW8 isolated from sickle cell disease patient
Streptococcus pneumoniae [2] = experiment: Antibacterial activity against Pneumococcus DAW6 isolated from sickle cell disease patient
Streptococcus pneumoniae [3] = experiment: Antibacterial activity against Pneumococcus DAW2 isolated from sickle cell disease patient
Streptococcus pneumoniae [4] = experiment: Antibacterial activity against Pneumococcus DAW9 isolated from sickle cell disease patient
Streptococcus pneumoniae [5] = experiment: Antibacterial activity against Pneumococcus DAW12 isolated from sickle cell disease patient
Streptococcus pneumoniae [6] = experiment: Antibacterial activity against Pneumococcus DAW13 isolated from sickle cell disease patient
Streptococcus pneumoniae [7] = experiment: Antibacterial activity against Pneumococcus DAW14 isolated from sickle cell disease patient
Streptococcus pneumoniae [8] = experiment: Antibacterial activity against Pneumococcus DAW15 isolated from sickle cell disease patient
Streptococcus pneumoniae [9] = experiment: Antibacterial activity against Pneumococcus DAW19 isolated from sickle cell disease patient
Streptococcus pneumoniae [10] = experiment: Antibacterial activity against Pneumococcus DAW22 isolated from sickle cell disease patient
Streptococcus pneumoniae [11] = experiment: Antibacterial activity against Pneumococcus DAW24 isolated from sickle cell disease patient
Streptococcus pneumoniae [12] = experiment: Antibacterial activity against Pneumococcus DAW26 isolated from sickle cell disease patient
Streptococcus pneumoniae [13] = experiment: Antibacterial activity against Pneumococcus DAW27 isolated from sickle cell disease patient
Streptococcus pneumoniae [14] = experiment: Antibacterial activity against Pneumococcus DAW51 isolated from sickle cell disease patient
Streptococcus pneumoniae [15] = experiment: Antibacterial activity against Pneumococcus DAW53 isolated from sickle cell disease patient
Streptococcus pneumoniae [16] = experiment: Antibacterial activity against Pneumococcus DAW57 isolated from sickle cell disease patient
Streptococcus pneumoniae [17] = experiment: Antibacterial activity against Pneumococcus DAW61 isolated from sickle cell disease patient
Streptococcus pneumoniae [18] = experiment: Antibacterial activity against Pneumococcus DAW62 isolated from sickle cell disease patient
Streptococcus pneumoniae [19] = experiment: Antibacterial activity against Pneumococcus DAW65 isolated from sickle cell disease patient
Streptococcus pneumoniae [20] = experiment: Antibacterial activity against Pneumococcus DAW66 isolated from sickle cell disease patient
Streptococcus pneumoniae [21] = experiment: Antibacterial activity against Pneumococcus DAW67 isolated from sickle cell disease patient
Streptococcus pneumoniae [22] = experiment: Antibacterial activity against Pneumococcus DAW68 isolated from sickle cell disease patient
Streptococcus pneumoniae [23] = experiment: Antibacterial activity against Pneumococcus DAW70 isolated from sickle cell disease patient
Streptococcus pneumoniae [24] = experiment: Antibacterial activity against Pneumococcus DAW75 isolated from sickle cell disease patient
Streptococcus pneumoniae [25] = experiment: Antibacterial activity against Pneumococcus DAW86 isolated from sickle cell disease patient
Streptococcus pneumoniae [26] = experiment: Antibacterial activity against Pneumococcus CDC001 isolated from sickle cell disease patient
Streptococcus pneumoniae [27] = experiment: Antibacterial activity against Pneumococcus CDC013 isolated from sickle cell disease patient
Streptococcus pneumoniae [28] = experiment: Antibacterial activity against Pneumococcus CDC018 isolated from sickle cell disease patient
Streptococcus pneumoniae [29] = experiment: Antibacterial activity against Pneumococcus CDC020 isolated from sickle cell disease patient
Streptococcus pneumoniae [30] = experiment: Antibacterial activity against Pneumococcus CDC023 isolated from sickle cell disease patient
Streptococcus pneumoniae [31] = experiment: Antibacterial activity against Pneumococcus CDC050 isolated from sickle cell disease patient
Streptococcus pneumoniae [32] = experiment: Antibacterial activity against Pneumococcus CDC063 isolated from sickle cell disease patient
Streptococcus pneumoniae [33] = experiment: Antibacterial activity against Pneumococcus CDC068 isolated from sickle cell disease patient

**Q.** For `CC[C@H]1OC(=O)[C@H](C)[C@@H](O[C@H]2C[C@@](C)(OC)[C@@H](O)[C@H](C)O2)[C@H](C)[C@@H](O[C@@H]2O[C@H](C)C[C@H](N(C)C)[C@H]2O)[C@](C)(O)C[C@@H](C)C(=O)[C@H](C)[C@@H](O)[C@]1(C)O` [ERYTHROMYCIN], which MIC (Streptococcus pneumoniae [1]) is on record?
**A.** The MIC was 0.125 µg/mL (≈ 0.17 µM).

**Q.** What about the MIC (Streptococcus pneumoniae [2]) of the same molecule?
**A.** The MIC was 0.25 µg/mL (≈ 0.341 µM).

**Q.** What about the MIC (Streptococcus pneumoniae [3]) of the same molecule?
**A.** Its MIC is 0.125 µg/mL (≈ 0.17 µM).

**Q.** What about the MIC (Streptococcus pneumoniae [4]) of the same molecule?
**A.** Its MIC is 256 µg/mL (≈ 349 µM).

**Q.** What about the MIC (Streptococcus pneumoniae [5]) of the same molecule?
**A.** Its MIC is 0.19 µg/mL (≈ 0.259 µM).

**Q.** What about the MIC (Streptococcus pneumoniae [6]) of the same molecule?
**A.** Its MIC is 4 µg/mL (≈ 5.45 µM).

**Q.** What about the MIC (Streptococcus pneumoniae [7]) of the same molecule?
**A.** Its MIC is 0.19 µg/mL (≈ 0.259 µM).

**Q.** And the MIC (Streptococcus pneumoniae [8])?
**A.** The MIC was 0.19 µg/mL (≈ 0.259 µM).

**Q.** What about the MIC (Streptococcus pneumoniae [9]) of the same molecule?
**A.** Its MIC is 24 µg/mL (≈ 32.7 µM).

**Q.** And the MIC (Streptococcus pneumoniae [10])?
**A.** The MIC was 256 µg/mL (≈ 349 µM).

**Q.** And the MIC (Streptococcus pneumoniae [11])?
**A.** The MIC was 0.125 µg/mL (≈ 0.17 µM).

**Q.** And the MIC (Streptococcus pneumoniae [12])?
**A.** Its MIC is 0.125 µg/mL (≈ 0.17 µM).

**Q.** What about the MIC (Streptococcus pneumoniae [13]) of the same molecule?
**A.** The MIC was 256 µg/mL (≈ 349 µM).

**Q.** What about the MIC (Streptococcus pneumoniae [14]) of the same molecule?
**A.** Its MIC is 0.19 µg/mL (≈ 0.259 µM).

**Q.** And the MIC (Streptococcus pneumoniae [15])?
**A.** Its MIC is 0.25 µg/mL (≈ 0.341 µM).

**Q.** What about the MIC (Streptococcus pneumoniae [16]) of the same molecule?
**A.** The MIC was 256 µg/mL (≈ 349 µM).

**Q.** And the MIC (Streptococcus pneumoniae [17])?
**A.** The MIC was 256 µg/mL (≈ 349 µM).

**Q.** And the MIC (Streptococcus pneumoniae [18])?
**A.** Its MIC is 0.125 µg/mL (≈ 0.17 µM).

**Q.** What about the MIC (Streptococcus pneumoniae [19]) of the same molecule?
**A.** Its MIC is 0.19 µg/mL (≈ 0.259 µM).

**Q.** And the MIC (Streptococcus pneumoniae [20])?
**A.** Its MIC is 0.19 µg/mL (≈ 0.259 µM).

**Q.** What about the MIC (Streptococcus pneumoniae [21]) of the same molecule?
**A.** Its MIC is 0.125 µg/mL (≈ 0.17 µM).

**Q.** What about the MIC (Streptococcus pneumoniae [22]) of the same molecule?
**A.** Its MIC is 0.125 µg/mL (≈ 0.17 µM).

**Q.** What about the MIC (Streptococcus pneumoniae [23]) of the same molecule?
**A.** Its MIC is 0.19 µg/mL (≈ 0.259 µM).

**Q.** And the MIC (Streptococcus pneumoniae [24])?
**A.** Its MIC is 0.19 µg/mL (≈ 0.259 µM).

**Q.** What about the MIC (Streptococcus pneumoniae [25]) of the same molecule?
**A.** Its MIC is 0.19 µg/mL (≈ 0.259 µM).

**Q.** What about the MIC (Streptococcus pneumoniae [26]) of the same molecule?
**A.** The MIC was 0.19 µg/mL (≈ 0.259 µM).

**Q.** What about the MIC (Streptococcus pneumoniae [27]) of the same molecule?
**A.** Its MIC is 0.125 µg/mL (≈ 0.17 µM).

**Q.** And the MIC (Streptococcus pneumoniae [28])?
**A.** Its MIC is 256 µg/mL (≈ 349 µM).

**Q.** What about the MIC (Streptococcus pneumoniae [29]) of the same molecule?
**A.** Its MIC is 256 µg/mL (≈ 349 µM).

**Q.** And the MIC (Streptococcus pneumoniae [30])?
**A.** Its MIC is 0.125 µg/mL (≈ 0.17 µM).

**Q.** And the MIC (Streptococcus pneumoniae [31])?
**A.** Its MIC is 0.25 µg/mL (≈ 0.341 µM).

**Q.** And the MIC (Streptococcus pneumoniae [32])?
**A.** Its MIC is 32 µg/mL (≈ 43.6 µM).

**Q.** And the MIC (Streptococcus pneumoniae [33])?
**A.** The MIC was 0.19 µg/mL (≈ 0.259 µM).

**Q.** `CCC[C@@H]1C[C@@H](C(=O)N[C@@H]([C@H]2O[C@H](SC)[C@H](O)[C@@H](O)[C@H]2O)[C@H](C)Cl)N(C)C1` [CLINDAMYCIN] was tested. Which MIC (Streptococcus pneumoniae [1]) did it give?
**A.** The MIC was 0.25 µg/mL (≈ 0.588 µM).

**Q.** What about the MIC (Streptococcus pneumoniae [2]) of the same molecule?
**A.** Its MIC is 0.038 µg/mL (≈ 0.0894 µM).

**Q.** And the MIC (Streptococcus pneumoniae [3])?
**A.** Its MIC is 0.25 µg/mL (≈ 0.588 µM).

**Q.** What about the MIC (Streptococcus pneumoniae [4]) of the same molecule?
**A.** Its MIC is 256 µg/mL (≈ 602 µM).

**Q.** And the MIC (Streptococcus pneumoniae [5])?
**A.** The MIC was 0.25 µg/mL (≈ 0.588 µM).

**Q.** What about the MIC (Streptococcus pneumoniae [6]) of the same molecule?
**A.** The MIC was 0.25 µg/mL (≈ 0.588 µM).

**Q.** And the MIC (Streptococcus pneumoniae [7])?
**A.** The MIC was 0.25 µg/mL (≈ 0.588 µM).

**Q.** What about the MIC (Streptococcus pneumoniae [8]) of the same molecule?
**A.** The MIC was 0.38 µg/mL (≈ 0.894 µM).

**Q.** What about the MIC (Streptococcus pneumoniae [9]) of the same molecule?
**A.** The MIC was 0.19 µg/mL (≈ 0.447 µM).

**Q.** And the MIC (Streptococcus pneumoniae [10])?
**A.** The MIC was 256 µg/mL (≈ 602 µM).

**Q.** And the MIC (Streptococcus pneumoniae [11])?
**A.** Its MIC is 0.25 µg/mL (≈ 0.588 µM).

**Q.** What about the MIC (Streptococcus pneumoniae [12]) of the same molecule?
**A.** The MIC was 0.25 µg/mL (≈ 0.588 µM).

**Q.** What about the MIC (Streptococcus pneumoniae [13]) of the same molecule?
**A.** The MIC was 256 µg/mL (≈ 602 µM).

**Q.** What about the MIC (Streptococcus pneumoniae [14]) of the same molecule?
**A.** Its MIC is 0.25 µg/mL (≈ 0.588 µM).

**Q.** What about the MIC (Streptococcus pneumoniae [15]) of the same molecule?
**A.** The MIC was 0.25 µg/mL (≈ 0.588 µM).

**Q.** And the MIC (Streptococcus pneumoniae [16])?
**A.** The MIC was 256 µg/mL (≈ 602 µM).

**Q.** What about the MIC (Streptococcus pneumoniae [17]) of the same molecule?
**A.** The MIC was 0.5 µg/mL (≈ 1.18 µM).

**Q.** What about the MIC (Streptococcus pneumoniae [19]) of the same molecule?
**A.** Its MIC is 0.25 µg/mL (≈ 0.588 µM).

**Q.** And the MIC (Streptococcus pneumoniae [20])?
**A.** The MIC was 0.25 µg/mL (≈ 0.588 µM).

**Q.** And the MIC (Streptococcus pneumoniae [23])?
**A.** Its MIC is 0.38 µg/mL (≈ 0.894 µM).

**Q.** And the MIC (Streptococcus pneumoniae [24])?
**A.** The MIC was 0.125 µg/mL (≈ 0.294 µM).

**Q.** And the MIC (Streptococcus pneumoniae [25])?
**A.** The MIC was 0.25 µg/mL (≈ 0.588 µM).

**Q.** What about the MIC (Streptococcus pneumoniae [26]) of the same molecule?
**A.** The MIC was 0.19 µg/mL (≈ 0.447 µM).

**Q.** What about the MIC (Streptococcus pneumoniae [28]) of the same molecule?
**A.** Its MIC is 256 µg/mL (≈ 602 µM).

**Q.** And the MIC (Streptococcus pneumoniae [30])?
**A.** Its MIC is 0.125 µg/mL (≈ 0.294 µM).

**Q.** And the MIC (Streptococcus pneumoniae [31])?
**A.** Its MIC is 0.25 µg/mL (≈ 0.588 µM).

**Q.** And the MIC (Streptococcus pneumoniae [32])?
**A.** Its MIC is 0.25 µg/mL (≈ 0.588 µM).

**Q.** And the MIC (Streptococcus pneumoniae [33])?
**A.** The MIC was 0.25 µg/mL (≈ 0.588 µM).
